From ChEMBL document CHEMBL1201862, “PubChem BioAssay data set” (2004)
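Interpolation was linear, between the two tested concentrations surrounding the appropriate level; five concentrations were tested over 48 hours in 96-well plates. GI50: concentration for 50% inhibition of growth.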 Calls of active or inactive are those of the source. No stated cut-off is given here; in the data, active = GI50 up to about 1.1 µM and inactive = higher.

Legend:
Assay in all cases: growth of human tumour cells (NCI), 48 h
NCI-H226 = system: NCI-H226
A549 = system: A549
SF-539 = system: SF-539
SN12C = system: SN12C
EKVX = system: EKVX
U-251 = system: U-251
HT-29 = system: HT-29
SF-295 = system: SF-295
Malme-3M = system: Malme-3M
KM12 = system: KM12
CAKI-1 = system: CAKI-1
SK-MEL-2 = system: SK-MEL-2
UO-31 = system: UO-31
LOX IMVI = system: LOX IMVI
SK-MEL-28 = system: SK-MEL-28
RXF 393 = system: RXF 393
SNB-75 = system: SNB-75
HCC 2998 = system: HCC 2998

Compound | GI50 (NCI-H226) | GI50 (A549) | GI50 (SF-539) | GI50 (SN12C) | GI50 (EKVX) | GI50 (U-251) | GI50 (HT-29) | GI50 (SF-295) | GI50 (Malme-3M) | GI50 (KM12) | GI50 (CAKI-1) | GI50 (SK-MEL-2) | GI50 (UO-31) | GI50 (LOX IMVI) | GI50 (SK-MEL-28) | GI50 (RXF 393) | GI50 (SNB-75) | GI50 (HCC 2998)
OCC(O)C(O)C(O)C(O)c1nnn[nH]1 (stereo not drawn) | > 100 µM (inactive) | > 100 µM (inactive) | > 100 µM (inactive) | > 100 µM (inactive) | > 100 µM (inactive) | > 100 µM (inactive) | > 100 µM (inactive) | > 100 µM (inactive) | > 100 µM (inactive) | > 100 µM (inactive) | > 100 µM (inactive) | > 100 µM (inactive) | > 100 µM (inactive) | > 100 µM (inactive) | – | – | – | –
Cc1ccc(NC(=O)c2cc3cc(/N=N/c4ccccc4C(=O)O)ccc3oc2=O)cc1 | 39.4 µM (inactive) | 40.9 µM (inactive) | 30.5 µM (inactive) | 54.6 µM (inactive) | 46.1 µM (inactive) | 43.2 µM (inactive) | 38.5 µM (inactive) | 44.4 µM (inactive) | 43.2 µM (inactive) | 44.5 µM (inactive) | – | – | 30.1 µM (inactive) | 35.2 µM (inactive) | 37.5 µM (inactive) | 51.4 µM (inactive) | 45.9 µM (inactive) | –
CC(=O)Nc1ccc2nc(-c3cccc(Cl)c3)cc(O)c2c1 | – | 54.7 µM (inactive) | 4.71 µM (inactive) | 32.2 µM (inactive) | > 100 µM (inactive) | 3.65 µM (inactive) | 11.2 µM (inactive) | – | 3.18 µM (inactive) | 4.83 µM (inactive) | – | – | – | – | 39.3 µM (inactive) | – | 4.4 µM (inactive) | 8.38 µM (inactive)
COC1=CC(=O)N(C(=O)C2CSC(C(CO)NC(=O)c3csc(/C=N/O)n3)=N2)C1 (stereo not drawn) | 36.6 µM (inactive) | – | > 100 µM (inactive) | > 100 µM (inactive) | > 100 µM (inactive) | – | > 100 µM (inactive) | > 100 µM (inactive) | 64.4 µM (inactive) | > 100 µM (inactive) | > 100 µM (inactive) | > 100 µM (inactive) | – | > 100 µM (inactive) | > 100 µM (inactive) | – | 0.302 µM (active) | –
Nc1cc(N2CCCC2)nc(=O)n1Cc1ccccc1 | > 100 µM (inactive) | > 100 µM (inactive) | > 100 µM (inactive) | > 100 µM (inactive) | > 100 µM (inactive) | > 100 µM (inactive) | > 100 µM (inactive) | > 100 µM (inactive) | > 100 µM (inactive) | > 100 µM (inactive) | > 100 µM (inactive) | > 100 µM (inactive) | – | > 100 µM (inactive) | – | – | > 100 µM (inactive) | –
CCN1C[C@]2(C)CC[C@H](O)C34C1C(C[C@@H]32)[C@@]1(O)CC[C@H]2C[C@@H]4[C@@H]1[C@H]2O | – | > 100 µM (inactive) | > 100 µM (inactive) | > 100 µM (inactive) | – | > 100 µM (inactive) | > 100 µM (inactive) | > 100 µM (inactive) | > 100 µM (inactive) | > 100 µM (inactive) | > 100 µM (inactive) | > 100 µM (inactive) | > 100 µM (inactive) | > 100 µM (inactive) | > 100 µM (inactive) | > 100 µM (inactive) | > 100 µM (inactive) | –
CCCCCCCCCCCCCCCC(=O)OCC1OC(n2cc(F)c(=O)[nH]c2=O)C(N)C(O)C1O (stereo not drawn) | 17.5 µM (inactive) | 19 µM (inactive) | 19.4 µM (inactive) | 18.2 µM (inactive) | 18.8 µM (inactive) | 18.5 µM (inactive) | 20.6 µM (inactive) | 17.1 µM (inactive) | 19.4 µM (inactive) | 18.6 µM (inactive) | 21 µM (inactive) | – | 15.6 µM (inactive) | 17.4 µM (inactive) | 16.9 µM (inactive) | – | 19.2 µM (inactive) | 14.5 µM (inactive)
